# Test results as given in PMC7536072, “Molecular and functional characterization of somatostatin-type signalling in a deuterostome invertebrate” (Open Biology, 2020).
# “Also recorded” adds a separate entry of the source. Like-named read-outs stand apart in the source and are kept apart here. Bridges are numbered along the chain shown (N, C = ends). Where no end group is shown, it is not given here.
# Legend:
# [1] = tested on: cardiac stomach preparations from A. rubens; test: in vitro relaxation of cardiac stomach preparations; parameters: species or system Asterias rubens; details: n = 6
# Protocol: Synthetic ArSS2 ([…], with a disulfide bridge between the cysteine residues) was custom synthesized (Peptide Protein Research Ltd, Fareham, UK) to enable testing of its pharmacological effects on in vitro preparations of organs/muscles from A. rubens. ArSS2 was tested for its in vitro effects on the contractility of tube foot, apical muscle and cardiac stomach preparations from at least six different specimens of A. rubens. Individual tube foot preparations were dissected from starfish arms with their corresponding ampulla intact. Then cotton ligatures were tied around the ambulacral body wall and the tube foot disc and then the external epithelium of the tube foot was scraped off using a blunt scalpel blade to facilitate penetration of peptides when tested in vitro, as described previously. Apical muscle preparations were dissected from the aboral body wall with approximately 1 cm strips of apical muscle tied at each end with cotton ligatures. Cardiac stomach preparations were dissected as described previously and then were tied at the aboral side of the cardiac stomach and around the oesophagus with cotton ligatures. The dissected preparations were tied to a fixed metal hook orally and to a high-grade isotonic transducer (MLT0015; ADInstruments Ltd; Oxford, UK) aborally, suspended in a 20 ml aerated organ bath containing artificial seawater at approximately 11°C. The transducer was connected via a bridge amplifier (FE221 Bridge Amp, ADInstruments Ltd, Oxford, UK) to data acquisition hardware (PowerLab 2/36, ADInstruments Ltd, Oxford, UK). Data collected from PowerLab were visualized as traces and analysed using LabChart (v. 8.0.7) software installed on a laptop computer (Lenovo E540, Windows 7 Professional).
# To examine the effects of ArSS2 on tube foot and cardiac stomach preparations, 10^−6 M acetylcholine (ACh) or artificial seawater (ASW) containing 30 mM added KCl was used to induce contraction of these preparations, respectively. Once a stable baseline contracted state was achieved, synthetic ArSS2 was added into the organ bath to sequentially achieve final concentrations in the range of 10^−10 to 10^−6 M. For these experiments, the contracting effect of 10^−6 M ACh or ASW containing 30 mM added KCl was defined as 100% and the relaxing effects of ArSS2 were then calculated as a percentage reversal of the 100% contracted state.
# Experiments were performed where the effects of ArSS2, S2 and asterotocin (at 10^−7 and 10^−6 M) on cardiac stomach preparations (n = 6) were compared. For these experiments, the effect of 10^−7 or 10^−6 M S2 was defined as 100% and the effect of asterotocin or ArSS2 was calculated as a % of the effect of S2. To determine if there were significant differences in magnitude of the relaxing effects of the three peptides on cardiac stomach preparations, data were analysed statistically using a two-tailed Student's t-test in Prism 6.
# [2] = tested on: cardiac stomach of A. rubens; test: in vivo cardiac stomach eversion after injection into the perivisceral coelom; parameters: species or system Asterias rubens; details: 10 µl 10^−3 M into perivisceral coelom, n = 10
# Protocol: When starfish (A. rubens) feed, the cardiac stomach is relaxed and everted out of the mouth over the digestible soft tissues of prey (e.g. mussels). […] Therefore, because ArSS2 causes relaxation of cardiac stomach preparations in vitro, we investigated if ArSS2 also triggers cardiac stomach eversion when injected in vivo. Firstly, 15 medium-sized starfish were starved for one week to normalize their physiological status. A Hamilton […] 50 μl syringe (Sigma-Aldrich; Gillingham, UK) was used to inject 10 μl 1 mM ArSS2, or 10 μl 1 mM asterotocin (positive control) or 10 μl water (negative control) into the […] coelom of starfish. ArSS2 was tested on five individuals firstly and then the next day, asterotocin was tested on the same batch of five individuals. For another five individuals, asterotocin was tested first and then ArSS2 was tested on the following day. The remaining five individuals were injected with water as a control. Thus, both ArSS2 and asterotocin were tested on ten starfish. For each starfish, the test agent was injected via two sites in the dorsal body wall of the arms proximal to the junctions with the central disc region. Care was taken to inject test agents into the […] coelom and not into the cardiac stomach.
# [3] = tested on: tube foot preparations from A. rubens; details: ref [67]; cited from earlier work
# [4] = tested on: cardiac stomach preparations from A. rubens; details: cited from earlier work; for cardiac stomach relaxant activity: ref [64],[67]
# Text: Likewise, ArSS2 caused dose-dependent relaxation of cardiac stomach preparations at concentrations between ... || ArSS2 is widely expressed in the digestive system of A. rubens, including the peristomial membrane, cardiac stomach, pyloric stomach, pyloric duct, and pyloric caeca. In the cardiac stomach, ArSSP2 transcripts are detected in cells located in the mucosa layer and ArSS2-immunoreactivity is present in the adjacent basi-epithelial nerve plexus. Consistent with this expression of ArSS2 in the cardiac stomach, ArSS2 causes dose-dependent relaxation of cardiac stomach preparations.
# [5] = tested on: apical muscle preparations from A. rubens; details: ref [67]; cited from earlier work
# [6] = tested on: cardiac stomach of A. rubens; details: cited from earlier work
# Text: When starfish (A. rubens) feed, the cardiac stomach is relaxed and everted out of the mouth over the digestible soft tissues of prey (e.g. mussels). […] Therefore, because ArSS2 causes relaxation of cardiac stomach preparations in vitro, we investigated if ArSS2 also triggers cardiac stomach eversion when injected in vivo. Firstly, 15 medium-sized starfish were starved for one week to norm ... || Asterias rubens feeds by everting its cardiac stomach through a narrow oral opening (mouth) and over the digestible parts of its prey, and for this to be accomplished, the cardiac stomach must be in a relaxed state. Neuropeptides that cause cardiac stomach in vitro are therefore potential mediators of cardiac stomach eversion in vivo. […] Therefore, here we investigated if ArSS2 also triggers cardiac stomach ever ... || The in vitro relaxing effect of ArSS2 on the cardiac stomach of A. rubens is of interest from a physiological/behavioural perspective because relaxation of the cardiac stomach is required for the extraoral feeding behaviour of starfish where it is everted out of the mouth and over the digestible soft tissue of prey such as mussels.
# ArSSR1 = test: GFP-aequorin luminescence receptor activation assay, CHO-K1 cells, ArSSR1 + Gα16; type: cell-based, Asterias rubens; details: ArSSR1
# ArSSR2 = test: GFP-aequorin luminescence receptor activation assay, CHO-K1 cells, ArSSR2 + Gα16; type: cell-based, Asterias rubens; details: ArSSR2
# ArSSR3 = test: GFP-aequorin luminescence receptor activation assay, CHO-K1 cells, ArSSR3 + Gα16; type: cell-based, Asterias rubens; details: ArSSR3
# [7] = tested on: CHO-K1 cells transfected with an empty pcDNA3.1(+) vector; test: luminescence control assay, CHO-K1 cells transfected with empty vector; type: cell-based, Chinese hamster; details: 10^-12 to 10^-5 M (figure S12), 0.1 % Triton X-100 = 100%
# Protocol: In order to characterize the candidate SS-type receptors, a G-protein-dependent receptor activation assay was employed. Chinese hamster ovary (CHO)-K1 cells stably overexpressing the calcium-sensitive bioluminescent reporter GFP-aequorin fusion protein (G5A) were used as a heterologous expression system. Plasmids containing A. rubens SS-type receptor cDNAs were co-transfected with the promiscuous human Gα16, which is widely used for receptor deorphanization assays. […] After 3 h incubation, a fixed volume of cells was injected sequentially into each well containing different concentrations of peptides using a FLUOstar Omega Plate Reader (BMG LABTECH, Ortenberg, Germany). Luminescence values were recorded over a 35 s period after injection. The total luminescence of each well over the 35 s period was calculated and normalized to the maximum value obtained in each experiment (100% activation) and to the value obtained with the vehicle media (0% activation). […] EC50 values were calculated from dose–response curves using Prism 6. The luminescence responses triggered by 10^−5 M ArSS1, 10^−5 M ArSS2 and vehicle media were analysed by one-way ANOVA using Bonferroni's multiple comparisons post hoc test in Prism 6. […]
# [8] = injected in vivo, ref [66],[67]
# [9] = 10^−5 M, vs BSA media (control) and, for ArSS2, vs ArSS1, one-way ANOVA, Bonferroni
# Sequence of ArSSR3 (as listed by the source): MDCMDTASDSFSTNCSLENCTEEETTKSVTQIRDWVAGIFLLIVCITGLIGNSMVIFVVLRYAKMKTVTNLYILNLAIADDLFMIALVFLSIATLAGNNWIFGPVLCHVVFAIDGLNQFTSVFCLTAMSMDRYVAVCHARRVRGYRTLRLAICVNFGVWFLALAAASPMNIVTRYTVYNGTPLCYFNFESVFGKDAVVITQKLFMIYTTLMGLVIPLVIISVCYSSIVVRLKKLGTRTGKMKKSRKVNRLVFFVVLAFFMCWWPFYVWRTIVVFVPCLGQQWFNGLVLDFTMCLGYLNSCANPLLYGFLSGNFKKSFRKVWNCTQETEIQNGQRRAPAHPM
substance,measurement,setting,value
"CLVQDCPEG-NH2 (disulfide 1-6 (inferred)) [asterotocin, reference compound]",relaxing effect compared with S2,"[1]; 10^−6 M, two-tailed Student's t-test p = 0.0255",significantly larger than the effect S2
same,relaxing effect compared with ArSS2,"[1]; 10^−6 M, two-tailed Student's t-test p = 0.0483",significantly larger
same,magnitude of cardiac stomach relaxing action relative to S2,"[1]; 10^−7 M, KCl-contracted, mean",3.5 times the effect of S2
same,relaxing effect compared with S2,"[1]; 10^−7 M, two-tailed Student's t-test p = 0.0055",significantly larger than the effect of S2
same,relaxing effect compared with ArSS2,"[1]; 10^−7 M, two-tailed Student's t-test p = 0.0250",significantly larger
same,"mean maximal eversion, area of everted cardiac stomach",[2]; 10 min recording,~125 % of the area of the central disc region
same,incidence of cardiac stomach eversion,[2],all of the animals
same,time of mean maximal eversion after injection,[2],approximately 9 min
same,relaxation of tube foot preparations,[3],caused relaxation of cardiac stomach and apical muscle preparations but not tube feet
same,cardiac stomach relaxant activity,[4],act as cardiac stomach relaxants
same,effectiveness as cardiac stomach relaxant compared with S2,[4]; ref [67],much more effective as a cardiac stomach relaxant than S2
same,relaxation of cardiac stomach preparations,[4]; ref [67],caused relaxation of cardiac stomach and apical muscle preparations but not tube feet
same,relaxation of apical muscle preparations,[5],caused relaxation of cardiac stomach and apical muscle preparations but not tube feet
same,cardiac stomach eversion,"[6]; 100 µl 10^−3 M into perivisceral coelom, ref [67]",complete eversion of the cardiac stomach
same,cardiac stomach eversion,[6]; [8],induce cardiac stomach eversion when injected in vivo
same,effectiveness and potency in triggering cardiac stomach eversion compared with S2,[6]; ref [67],much more effective and potent than S2
"KCIGRFQPFSMPC (disulfide 2-13 (inferred)) [ArSS1, 13-residue SS-type neuropeptide of Asterias rubens derived from ArSSP1 (…)]",luminescence compared with control,ArSSR1; [9],not significantly different
same,triggering of luminescence,ArSSR1; 10^−21 to 10^−4 M,did not trigger luminescence
same,luminescence compared with control,ArSSR2; [9],not significantly different
same,triggering of luminescence,ArSSR2; 10^−21 to 10^−4 M,did not trigger luminescence
same,luminescence compared with control,ArSSR3; [9],not significantly different
same,triggering of luminescence,ArSSR3; 10^−21 to 10^−4 M,did not trigger luminescence
same,luminescence response in cells with empty vector,[7],do not trigger luminscence; also recorded: Neither ArSS1 nor ArSS2 elicited responses
"SGPYSFNSGLTF-NH2 [S2, SALMFamide neuropeptide S2 (…-NH2)]",magnitude of cardiac stomach relaxing action relative to asterotocin,"[1]; 10^−6 M, KCl-contracted, mean",approximately 50 % of the effect of asterotocin
same,cardiac stomach relaxant activity,[4],act as cardiac stomach relaxants
same,relaxation of tube foot and/or cardiac stomach preparations,"[4]; tube foot and/or cardiac stomach, ref [64],[66]",cause relaxation of tube foot and/or cardiac stomach preparations
same,cardiac stomach eversion,[6]; [8],induce cardiac stomach eversion when injected in vivo
